Data from US6277834A, “Agents for relieving side effects of adrenal cortex hormone” (Senju Pharmaceutical Co. Ltd., priority 1998, dated 2001).
Structures can show the parent of a compound that is named as a salt.

Assays:
[1] = test system: croton oil-induced edema of the right auricles of the mice; assay: Croton oil-induced ear edema in mice (antiinflammatory effect); type: in vivo, ICR mice (10-week old male)
Protocol: A test was performed for examining antiinflammatory effect observed by concurrent use of the present compound and an adrenocortical hormone. In addition, dose-response test was carried out for the adrenocortical hormone.
(§1) 0.012% betamethasone valerate (dissolved in methanol).
0.5% EPC-K (dissolved in methanol).
Twenty μl of croton oil (6%) dissolved in acetone was applied on the outer surface of the right auricles of the mice to induce edema. Fifteen minutes later, 20 μl of one of the test materials was applied to each of the right auricles.
Four hours after the application of the test materials, the thickness of the right auricles of the mice were measured using a dial thickness gauge and edema rates were determined by comparing their thickness with that before induction.

[2] = Acute toxicity (LD50); conditions: in vivo, rat
[3] = Body weight, thymus and spleen weight in hairless mice after repeated topical application (reduction of side effects of an adrenocortical hormone); conditions: EPC-K (0.5%) administered concurrently with betamethasone valerate (0.012%), two weeks
Protocol: A test was carried out to examine the effect of the present compound to reduce side effects of an adrenocortical hormone.
as §1
0.012% betamethasone valerate +0.5% EPC-K (dissolved in methanol).
10-week old female HR-1 hairless mice purchased from SLC Japan were used for the test. One hundred μl of the test materials were applied to the respective mice on the whole area of their back skin. This procedure was repeated once a day for two weeks, and then the body weight and the weight of the thymus and the spleen were determined.

[4] = Table 4, 4 h after 20 μl topical, 0.5% EPC-K, 0.012% betamethasone valerate, or both, mean ± S.D. (n = 23-27), methanol 116.1 ± 23.3
[5] = Table 4, edema inhibition 4 h after 20 μl topical, 0.5% EPC-K, 0.012% betamethasone valerate, or both, n = 23-27

| Structure (SMILES) | Edema rate(%) [1, 4] | Inhibition rate(%) [1, 5] | Edema rate(%) ([1]; Table 5 dose-response, 0.012% betamethasone valerate, 4 h, mean ± S.D. (n = 8-9), methanol 138.8 ± 18.5) | Inhibition rate(%) ([1]; Table 5 dose-response, 0.012% betamethasone valerate, 4 h, n = 8-9) | Edema rate(%) ([1]; Table 5 dose-response, 0.040% betamethasone valerate, 4 h, mean ± S.D. (n = 8-9), methanol 138.8 ± 18.5) | Inhibition rate(%) ([1]; Table 5 dose-response, 0.040% betamethasone valerate, 4 h, n = 8-9) | Edema rate(%) ([1]; Table 5 dose-response, 0.12% betamethasone valerate, 4 h, mean ± S.D. (n = 8-9), methanol 138.8 ± 18.5) | Inhibition rate(%) ([1]; Table 5 dose-response, 0.12% betamethasone valerate, 4 h, n = 8-9) | concentration of betamethasone valerate that would give an effect comparable to 0.012% betamethasone valerate plus 0.5% EPC-K ([1]; calculated from the dose-response test (Table 5)) | LD50 ([2]; iv) | LD50 ([2]; po) | atrophy of spleen (by betamethasone valerate) [3] | atrophy of thymus (by betamethasone valerate) [3] | body weight reduction (by betamethasone valerate) [3] |
| --- | --- | --- | --- | --- | --- | --- | --- | --- | --- | --- | --- | --- | --- | --- |
| CCCCC(=O)O[C@]1(C(=O)CO)[C@@H](C)C[C@H]2[C@@H]3CCC4=CC(=O)C=C[C@]4(C)[C@@]3(F)[C@@H](O)C[C@@]21C [Betamethasone valerate, betamethasone valerate] | 87.3 ± 21.7% | 27.9% | 101.6 ± 15.3% | 26.8% | 86.5 ± 30.3% | 37.7% | 52.8 ± 13.3% | 62.0% | 0.088% | – | – | – | – | – |
| Cc1c(C)c2c(c(C)c1OP(=O)(O)OC1=C(O)[C@@H]([C@@H](O)CO)OC1=O)CCC(C)(CCCC(C)CCCC(C)CCCC(C)C)O2 (mixture of isomers) [EPC-K, potassium salt of phosphodiester of L-ascorbic acid and DL-α-tocopherol] | 109.1 ± 26.3% | 6.0% | – | – | – | – | – | – | – | > 100 mg/kg | > 5000 mg/kg | suppressed | suppressed | suppressed |
